{"source": "patent US20260001883A1", "about": "“5H-PYRROLO[2,3-D]PYRIMIDIN-6(7H)-ONE AND CRYSTAL OF SALT THEREOF” (priority 2022, published 2026)", "type_in_all_cases": "physicochemical", "key": {"[1]": {"test": "Solid state stability test (preservation stability, 70° C./75% RH, 2 weeks)", "conditions": "for Appearance change / Total amount of analogous substances (%) 70° C./75% RH (closed system) / Total amount of analogous substances (%) 70° C./75% RH (open system) / amount of analogous substances after preservation (in words) / Powder X-ray diffraction pattern (change after preservation): after 2 weeks at 70° C./75% RH; for Total amount of analogous substances (%) 70° C./75% RH (closed system) / Total amount of analogous substances (%) 70° C./75% RH (open system) / Total amount of analogous substances (%) Initial value: HPLC; for Total amount of analogous substances (%) Initial value: before preservation, UV 220 nm", "procedure": "The preservation stability of each of the type I crystal, type II crystal, and type III crystal of the free base of Compound (I), which were produced according to the methods described in Examples 1, 2 and 3 above, respectively, was tested under the following conditions. • Preservation conditions: 70° C./75% RH (open system and closed system) • Measuring point: 2 weeks • Preserved amount: about 50 mg • Preservation container: brown glass bottle\nThe powder X-ray diffraction of the sample after preservation was measured according to the aforementioned method. A change in the amount of analogous substances (the amount of substances detected other than Compound (I)) was measured by weighing out about 1 mg of the sample, dissolving it in about 5 mL of a water/acetonitrile mixed solution (1:1), accurately measuring 5 μL of this solution, and analyzing it by HPLC using the following method. • Column: InertSustain C18, 4.6×150 mm, 3 μm • Column temperature: 40° C. • Column flow rate: 1.0 mL/min • Mobile phase: A—10 mM phosphate buffer (pH 5.5)/acetonitrile (9:1); B—acetonitrile • Detection UV: 220 nm • Gradient: […]\n(§1) The crystal of the hydrochloride of Compound (I), the crystal of the maleate of Compound (I), the crystal of ½ malate of Compound (I), and the crystal of the acetate of Compound (I),which were produced according to the methods described in Example 4, Example 5, Comparative Example 1, and Comparative Example 2, were tested in terms of preservation stability under the conditions of Test Example 1."}, "[2]": {"test": "Dynamic moisture adsorption/desorption test", "conditions": "25° C., humidity 5% RH to 95% RH and back to 5% RH", "procedure": "For the test, a VTI-SA+ (TA Instruments) was used. About 10 mg of each of a free base type I crystal, a free base type II crystal, and a […] was weighed, and was placed in a pan. While confirming that the weight fluctuation was within 0.0100% in 5 minutes, the temperature was raised up to 60° C. at 1 degree per minute. If the weight fluctuated, the temperature was maintained for a maximum of 5 hours before proceeding to the next step. Thereafter, the temperature was lowered to 25° C., and the humidity was raised from 5% RH to 95% RH, and was then lowered to 5% RH. At that time, the humidity was changed by 5% RH while confirming that the weight fluctuation was within 0.00100% in 5 minutes. If the weight fluctuated, the humidity was maintained for a maximum of 2 hours before proceeding to the next step.\nas §1, with “2.” for “1.”"}, "[3]": {"test": "Heat stability test (powder X-ray diffraction under heating to 210° C.)", "conditions": "heating from 25° C. to 210° C.", "procedure": "Using the free base type I crystal, the free base type II crystal, and the free base type III crystal, which were produced according to the methods described in Examples 1, 2 and 3 above, a heat stability test was carried out.\nPowder X-ray diffraction measurement was carried out at 25° C., and the temperature was raised to 50° C. over 30 minutes, after which powder X-ray diffraction measurement was carried out. Thereafter, the temperature was further raised to 210° C. at 10° C./10 minutes, and powder X-ray diffraction measurement was then carried out. After that, the temperature was lowered to 25° C. over 30 minutes, and powder X-ray diffraction measurement was then carried out."}, "[4]": {"conditions": "listed as crystal of the acetate of Compound (I)"}, "[5]": {"conditions": "listed as crystal of the hydrochloride of Compound (I)"}, "[6]": {"conditions": "listed as crystal of the maleate of Compound (I)"}, "[7]": {"conditions": "listed as crystal of the ½ malate of Compound (I)"}, "[8]": {"conditions": "listed as free base type III crystal"}, "[9]": {"conditions": "listed as free base type II crystal"}}, "note": "Structures can show the parent of a compound that is named as a salt."}
{"smiles": "CC(C)(C)NCCNc1ccc(-c2nnc(C(F)(F)F)o2)nc1C1CCN(c2ncnc3c2C(C)(C)C(=O)N3)CC1", "note": "[Crystal of acetate, 4-(4-(3-((2-(tert-butylamino)ethyl)amino)-6-(5-(trifluoromethyl)-1,3,4-oxadiazol-2-yl)pyridin-2-yl)piperidin-1-yl)-5,5-dimethyl-5H-pyrrolo[2,3-d]pyrimidin-6(7H)-one]", "values": [{"measurement": "Appearance change", "setting": "[1]", "value": "No significant"}, {"measurement": "Total amount of analogous substances (%) 70° C./75% RH (closed system)", "setting": "[1]", "value": 0.3, "unit": "%"}, {"measurement": "Total amount of analogous substances (%) 70° C./75% RH (open system)", "setting": "[1]", "value": 1.1, "unit": "%"}, {"measurement": "Appearance change", "setting": "[1]; [4]", "value": "no change in appearance"}, {"measurement": "amount of analogous substances after preservation (in words)", "setting": "[1]; [4]", "value": "large amounts of analogous substances"}, {"measurement": "Total amount of analogous substances (%) Initial value", "setting": "[1]", "value": 0.3, "unit": "%"}]}
{"smiles": "CC(C)(C)NCCNc1ccc(-c2nnc(C(F)(F)F)o2)nc1C1CCN(c2ncnc3c2C(C)(C)C(=O)N3)CC1", "note": "[Crystal of hydrochloride, 4-(4-(3-((2-(tert-butylamino)ethyl)amino)-6-(5-(trifluoromethyl)-1,3,4-oxadiazol-2-yl)pyridin-2-yl)piperidin-1-yl)-5,5-dimethyl-5H-pyrrolo[2,3-d]pyrimidin-6(7H)-one]", "values": [{"measurement": "Appearance change", "setting": "[1]", "value": "No significant"}, {"measurement": "Powder X-ray diffraction pattern (change after preservation)", "setting": "[1]", "value": "No significant"}, {"measurement": "Total amount of analogous substances (%) 70° C./75% RH (closed system)", "setting": "[1]", "value": 0.2, "unit": "%"}, {"measurement": "Total amount of analogous substances (%) 70° C./75% RH (open system)", "setting": "[1]", "value": 0.2, "unit": "%"}, {"measurement": "Appearance change", "setting": "[1]; [5]", "value": "no change was observed in appearance"}, {"measurement": "Powder X-ray diffraction pattern (change after preservation)", "setting": "[1]; [5]", "value": "no changes"}, {"measurement": "amount of analogous substances after preservation (in words)", "setting": "[1]; [5]", "value": "only small amounts of analogous substances"}, {"measurement": "Total amount of analogous substances (%) Initial value", "setting": "[1]", "value": 0.2, "unit": "%"}, {"measurement": "hygroscopicity (moisture adsorption/desorption isotherm)", "setting": "[2]; listed as crystal of the hydrochloride", "value": "lower hygroscopicity than the crystal of the ½ malate"}]}
{"smiles": "CC(C)(C)NCCNc1ccc(-c2nnc(C(F)(F)F)o2)nc1C1CCN(c2ncnc3c2C(C)(C)C(=O)N3)CC1", "note": "[Crystal of maleate, 4-(4-(3-((2-(tert-butylamino)ethyl)amino)-6-(5-(trifluoromethyl)-1,3,4-oxadiazol-2-yl)pyridin-2-yl)piperidin-1-yl)-5,5-dimethyl-5H-pyrrolo[2,3-d]pyrimidin-6(7H)-one]", "values": [{"measurement": "Appearance change", "setting": "[1]", "value": "No significant"}, {"measurement": "Powder X-ray diffraction pattern (change after preservation)", "setting": "[1]", "value": "No significant"}, {"measurement": "Total amount of analogous substances (%) 70° C./75% RH (closed system)", "setting": "[1]", "value": 0.1, "unit": "%"}, {"measurement": "Total amount of analogous substances (%) 70° C./75% RH (open system)", "setting": "[1]", "value": 0.1, "unit": "%"}, {"measurement": "Appearance change", "setting": "[1]; [6]", "value": "no change was observed in appearance"}, {"measurement": "Powder X-ray diffraction pattern (change after preservation)", "setting": "[1]; [6]", "value": "no changes"}, {"measurement": "amount of analogous substances after preservation (in words)", "setting": "[1]; [6]", "value": "only small amounts of analogous substances"}, {"measurement": "Total amount of analogous substances (%) Initial value", "setting": "[1]", "value": 0.1, "unit": "%"}, {"measurement": "hygroscopicity (moisture adsorption/desorption isotherm)", "setting": "[2]; listed as crystal of the maleate", "value": "low hygroscopicity"}]}
{"smiles": "CC(C)(C)NCCNc1ccc(-c2nnc(C(F)(F)F)o2)nc1C1CCN(c2ncnc3c2C(C)(C)C(=O)N3)CC1", "note": "[Crystal of ½ malate, 4-(4-(3-((2-(tert-butylamino)ethyl)amino)-6-(5-(trifluoromethyl)-1,3,4-oxadiazol-2-yl)pyridin-2-yl)piperidin-1-yl)-5,5-dimethyl-5H-pyrrolo[2,3-d]pyrimidin-6(7H)-one]", "values": [{"measurement": "Appearance change", "setting": "[1]", "value": "No significant"}, {"measurement": "Total amount of analogous substances (%) 70° C./75% RH (closed system)", "setting": "[1]", "value": 5.2, "unit": "%"}, {"measurement": "Total amount of analogous substances (%) 70° C./75% RH (open system)", "setting": "[1]", "value": 64.0, "unit": "%"}, {"measurement": "Appearance change", "setting": "[1]; [7]", "value": "no change in appearance"}, {"measurement": "amount of analogous substances after preservation (in words)", "setting": "[1]; [7]", "value": "large amounts of analogous substances"}, {"measurement": "Total amount of analogous substances (%) Initial value", "setting": "[1]", "value": 0.4, "unit": "%"}]}
{"smiles": "CC(C)(C)NCCNc1ccc(-c2nnc(C(F)(F)F)o2)nc1C1CCN(c2ncnc3c2C(C)(C)C(=O)N3)CC1", "note": "[Frcc body type III crystal, 4-(4-(3-((2-(tert-butylamino)ethyl)amino)-6-(5-(trifluoromethyl)-1,3,4-oxadiazol-2-yl)pyridin-2-yl)piperidin-1-yl)-5,5-dimethyl-5H-pyrrolo[2,3-d]pyrimidin-6(7H)-one]", "values": [{"measurement": "Appearance change", "setting": "[1]", "value": "No significant"}, {"measurement": "Powder X-ray diffraction pattern (change after preservation)", "setting": "[1]", "value": "No significant"}, {"measurement": "Total amount of analogous substances (%) 70° C./75% RH (closed system)", "setting": "[1]", "value": 0.7, "unit": "%"}, {"measurement": "Total amount of analogous substances (%) 70° C./75% RH (open system)", "setting": "[1]", "value": 0.8, "unit": "%"}, {"measurement": "Powder X-ray diffraction pattern (change after preservation)", "setting": "[1]; listed as type III crystal", "value": "no change was observed"}, {"measurement": "Total amount of analogous substances (%) Initial value", "setting": "[1]", "value": 0.5, "unit": "%"}, {"measurement": "hygroscopicity (moisture adsorption/desorption isotherm)", "setting": "[2]", "value": "excellent low hygroscopicity"}, {"measurement": "hygroscopicity (moisture adsorption/desorption isotherm)", "setting": "[2]; [8]", "value": "low hygroscopicity"}, {"measurement": "change of crystal form under heating (powder X-ray diffraction)", "setting": "[3]; [8]", "value": "new peaks appeared"}]}
{"smiles": "CC(C)(C)NCCNc1ccc(-c2nnc(C(F)(F)F)o2)nc1C1CCN(c2ncnc3c2C(C)(C)C(=O)N3)CC1", "note": "[Free body type I crystal, 4-(4-(3-((2-(tert-butylamino)ethyl)amino)-6-(5-(trifluoromethyl)-1,3,4-oxadiazol-2-yl)pyridin-2-yl)piperidin-1-yl)-5,5-dimethyl-5H-pyrrolo[2,3-d]pyrimidin-6(7H)-one]", "values": [{"measurement": "Appearance change", "setting": "[1]", "value": "No significant"}, {"measurement": "Powder X-ray diffraction pattern (change after preservation)", "setting": "[1]", "value": "No significant"}, {"measurement": "Total amount of analogous substances (%) 70° C./75% RH (closed system)", "setting": "[1]", "value": 0.5, "unit": "%"}, {"measurement": "Total amount of analogous substances (%) 70° C./75% RH (open system)", "setting": "[1]", "value": 0.5, "unit": "%"}, {"measurement": "Powder X-ray diffraction pattern (change after preservation)", "setting": "[1]; listed as type I crystal", "value": "no change was observed"}, {"measurement": "Total amount of analogous substances (%) Initial value", "setting": "[1]", "value": 0.6, "unit": "%"}, {"measurement": "hygroscopicity (moisture adsorption/desorption isotherm)", "setting": "[2]", "value": "excellent low hygroscopicity"}, {"measurement": "hygroscopicity (moisture adsorption/desorption isotherm)", "setting": "[2]; listed as free base type I crystal", "value": "low hygroscopicity"}, {"measurement": "change of crystal form under heating (powder X-ray diffraction)", "setting": "[3]; listed as free base type 1 crystal", "value": "no changes were observed in the crystal form"}]}
{"smiles": "CC(C)(C)NCCNc1ccc(-c2nnc(C(F)(F)F)o2)nc1C1CCN(c2ncnc3c2C(C)(C)C(=O)N3)CC1", "note": "[Free body type II crystal, 4-(4-(3-((2-(tert-butylamino)ethyl)amino)-6-(5-(trifluoromethyl)-1,3,4-oxadiazol-2-yl)pyridin-2-yl)piperidin-1-yl)-5,5-dimethyl-5H-pyrrolo[2,3-d]pyrimidin-6(7H)-one]", "values": [{"measurement": "Appearance change", "setting": "[1]", "value": "No significant"}, {"measurement": "Powder X-ray diffraction pattern (change after preservation)", "setting": "[1]", "value": "No significant"}, {"measurement": "Total amount of analogous substances (%) 70° C./75% RH (closed system)", "setting": "[1]", "value": 0.5, "unit": "%"}, {"measurement": "Total amount of analogous substances (%) 70° C./75% RH (open system)", "setting": "[1]", "value": 0.6, "unit": "%"}, {"measurement": "Powder X-ray diffraction pattern (change after preservation)", "setting": "[1]; listed as type II crystal", "value": "no change was observed"}, {"measurement": "Total amount of analogous substances (%) Initial value", "setting": "[1]", "value": 0.5, "unit": "%"}, {"measurement": "hygroscopicity (moisture adsorption/desorption isotherm)", "setting": "[2]; [9]", "value": "low hygroscopicity"}, {"measurement": "change of crystal form under heating (powder X-ray diffraction)", "setting": "[3]; [9]", "value": "new peaks appeared"}]}
